Results reported in patent US4174390A, “Antibiotic A-7413 and process for preparation thereof” (Eli Lilly and Company, priority 1978, dated 1979).
In brackets after ≈: the same amount, converted by molar mass.

Tests used:
Streptococcus species = test: agar-dilution tests, penicillin-G-resistant Group-D-Streptococcus strains; assay type: cell-based, Streptococcus sp.
Protocol: In Table VI are summarized the results of agar-dilution tests wherein A-7413 factor A was tested against a variety of Streptococcus species. These tests employed trypticase-soy agar plus blood, 10^-2 dilution of an overnight broth culture in 0.3% agar as an inoculum, giving approximately 5,000 bacteria per 7.5-mm of agar surface. Again, the results for vancomycin in the same test are reported for comparison. All strains tested are penicillin-G-resistant, Group-D-Streptococcus strains.

[1] = tested on: Staphylococcus aureus strains; test: standard agar-dilution tests (ICS method), S. aureus strains; assay type: cell-based
Protocol: A special advantage of the A-7413 compounds is their ability to inhibit organisms which are resistant to other antibiotics. In Table V are summarized the results of standard agar-dilution tests (using the ICS method) wherein A-7413 factor A was tested against a variety of Staphylococcus aureus strains. Results are given as the minimal inhibitory concentration (MIC) at which inhibition of the S. aureus strain occurred. The results obtained with the known antibiotic vancomycin in the same test are included for comparison.

CN[C@H](CC(C)C)C(=O)N[C@H]1C(=O)N[C@@H](CC(N)=O)C(=O)N[C@H]2C(=O)N[C@H]3C(=O)N[C@H](C(=O)N[C@H](C(=O)O)c4cc(O)cc(O)c4-c4cc3ccc4O)[C@H](O)c3ccc(c(Cl)c3)Oc3cc2cc(c3O[C@@H]2O[C@H](CO)[C@@H](O)[C@H](O)[C@H]2O[C@H]2C[C@](C)(N)[C@H](O)[C@H](C)O2)Oc2ccc(cc2Cl)[C@H]1O [Vancomycin, vancomycin]
MIC (Streptococcus species; Streptococcus sp. strain 238, trypticase-soy agar plus blood): 2 µg/mL
MIC (Streptococcus species; Streptococcus sp. strain 282, trypticase-soy agar plus blood): 2 µg/mL
MIC (Streptococcus species; Streptococcus sp. strain 8043, trypticase-soy agar plus blood): 4 µg/mL
MIC (Streptococcus species; Streptococcus sp. strain 9901, trypticase-soy agar plus blood): 4 µg/mL
MIC (Streptococcus species; Streptococcus sp. strain 9913, trypticase-soy agar plus blood): 2 µg/mL
MIC (Streptococcus species; Streptococcus sp. strain 9933, trypticase-soy agar plus blood): 8 µg/mL
MIC (Streptococcus species; Streptococcus sp. strain 9960, trypticase-soy agar plus blood): 4 µg/mL
MIC (Streptococcus species; Streptococcus sp. strain 12253P, trypticase-soy agar plus blood): 2 µg/mL
MIC (Streptococcus species; Streptococcus sp. strain 55992, trypticase-soy agar plus blood): 4 µg/mL
MIC (Streptococcus species; Streptococcus sp. strain Mitis, trypticase-soy agar plus blood): 4 µg/mL
MIC (Streptococcus species; Streptococcus sp. strain Shrigley, trypticase-soy agar plus blood): 4 µg/mL
MIC ([1]; S. aureus strain 3055, penicillin G susceptible): 1 µg/mL (≈ 0.69 µM)
MIC ([1]; S. aureus strain 3074, penicillin G resistant, methicillin susceptible): 1 µg/mL (≈ 0.69 µM)
MIC ([1]; S. aureus strain 3123, penicillin G susceptible): 1 µg/mL (≈ 0.69 µM)
MIC ([1]; S. aureus strain 3125, penicillin G and methicillin resistant): 1 µg/mL (≈ 0.69 µM)
MIC ([1]; S. aureus strain 3130, penicillin G and methicillin resistant): 1 µg/mL (≈ 0.69 µM)
MIC ([1]; S. aureus strain 3131, penicillin G and methicillin resistant): 1 µg/mL (≈ 0.69 µM)
MIC ([1]; S. aureus strain 3132, penicillin G and methicillin resistant): 1 µg/mL (≈ 0.69 µM)
MIC ([1]; S. aureus strain 3133, penicillin G and methicillin resistant): 1 µg/mL (≈ 0.69 µM)
MIC ([1]; S. aureus strain 3134, penicillin G and methicillin resistant): 1 µg/mL (≈ 0.69 µM)
MIC ([1]; S. aureus strain 3135, penicillin G and methicillin resistant): 0.5 µg/mL (≈ 0.345 µM)
MIC ([1]; S. aureus strain 3136, penicillin G and methicillin resistant): 0.5 µg/mL (≈ 0.345 µM)
MIC ([1]; S. aureus strain 3137, penicillin G and methicillin resistant): 1 µg/mL (≈ 0.69 µM)
MIC ([1]; S. aureus strain 3138, penicillin G and methicillin resistant): 1 µg/mL (≈ 0.69 µM)
MIC ([1]; S. aureus strain 3139, penicillin G and methicillin resistant): 1 µg/mL (≈ 0.69 µM)
MIC ([1]; S. aureus strain 3140, penicillin G and methicillin resistant): 0.5 µg/mL (≈ 0.345 µM)
MIC ([1]; S. aureus strain H43, penicillin G resistant, methicillin susceptible): 1 µg/mL (≈ 0.69 µM)
MIC ([1]; S. aureus strain H114, penicillin G resistant, methicillin susceptible): 1 µg/mL (≈ 0.69 µM)
MIC ([1]; S. aureus strain H290, penicillin G susceptible): 1 µg/mL (≈ 0.69 µM)
MIC ([1]; S. aureus strain H541, penicillin G resistant, methicillin susceptible): 1 µg/mL (≈ 0.69 µM)
